Results: patent publication US20250163013A1, “TREATMENT OF GENITOURINARY SYNDROME OF MENOPAUSE” (THE REGENTS OF THE UNIVERSITY OF COLORADO, a body corporate, priority 2022, published 2025)
Entries after “also recorded” stand apart in the source; their conditions may differ.

Columns and labels:
estrogen receptor = assay: Screen for agonist or antagonist effects on steroid hormone receptor-mediated gene expression; type: cell-based; conditions: cell lines with endogenous genes or stably integrated reporter genes
Procedure: A screen for the agonist or antagonist effects of a set of commercially available flavonoids was done by assessing their ability to induce or inhibit steroid hormone receptor-mediated gene expression. Cell lines were used in which the activity of endogenous genes or stably integrated reporter genes provided a facile method to quantify the effect of the flavonoids. The compound library was tested for their effects on gene expression mediated by the estrogen receptor, androgen receptor, progesterone receptor, and glucocorticoid receptor. […] Compound 2 differs from compound 1 by the addition of a hydroxyl group at carbon 3 of the flavone scaffold. We reasoned that other substitutions at position 3 could have estrogenic activity. Two novel compounds were tested: compound 3 (6-hydroxy-2-(4-hydroxyphenyl)-3-methyl-4H-chromen-4-one) and compound 4 (3-fluoro-6-hydroxy-2-(4-hydroxyphenyl)-4H-chromen-4-one) of Table 1, which have a methyl or fluoro moiety, respectively, at position 3.

[1] = tested on: Estrogen Response Element (ERE)-luciferase reporter gene; assay: Cell culture-reporter gene assay of estrogenic activity (T47D ERE-luciferase); type: cell-based; conditions: for EC50: Homo sapiens, T47D breast cancer cell line, ERE-luciferase, treated 20 hours, FIG. 4; for estrogenic activity (luciferase) in words: compared to estradiol 1 nM
Procedure: Estrogenic activity was compared to an optimal dose of estradiol (1 nM). Results from cell culture-reporter gene assay was performed in which a T47D breast cancer cell line with a stably integrated Estrogen Response Element (ERE)-luciferase reporter gene was treated for 20 hours with the indicated doses of test compounds (FIG. 4). Luciferase activity was compared to an optimal dose of estradiol (1 nM).

ovariectomized rat [2] = assay: Ki67 immunohistochemistry of vaginal sections, ovariectomized rat; type: in vivo; conditions: high compound 4, 1.0 mg/suppository daily for 14 days
Procedure: Compound 4 of Table 1 was tested in the ovariectomized rat, a model of GSM, (Yousefzadeh N, et al., Ovariectomized rat model of osteoporosis: a practical guide. EXCLI J. 2020 Jan. 10; 19:89-107. doi: 10.17179/excli2019-1990). Six rats were tested in each of five treatment groups: rats treated with low or high concentrations of control (vehicle only); rats treated with low (0.2 mg/suppository or high (1.0 mg/suppository levels of compound 4 (abbreviated as “3F” in these figures); and rats treated with estradiol 0.1 microgram/suppository. Suppositories were administered intravaginally daily for 14 days. There were two sets of vehicle controls, corresponding to the level of excipients used in the in the low and high compound 4 treatment conditions. The estradiol treatment condition had excipients equivalent to the high control and high compound 4 treatment conditions. […] To determine the depth of the epithelium, high quality 100x images were taken of the two regions and thickness of the epithelium measured at 25 distinct sites at each level for each animal, then averaged. […] P values were determined by student's T-test. […]
Ki-67 is a protein expressed in G1, S, G2, and M phase and has been established as a marker of cellular proliferation. […] Approximately 800 cells were assessed on each slide. […] P values were determined by student's T-test.

ovariectomized rat [3] = assay: Depth of vaginal epithelium in ovariectomized rat model of GSM; type: in vivo
Procedure: Independent measurement from mid-vagina (sections 3-4) and vagina near the cervix (sections 6-7) are shown. Twenty-five separate measurements were performed on sections 3-4 and also on sections 6-7 for each animal. There were 6 animals per treatment group, therefore each bar represents the mean of 150 measurements with the vertical line indicating one standard deviation.
(§1) Compound 4 of Table 1 was tested in the ovariectomized rat, a model of GSM, (Yousefzadeh N, et al., Ovariectomized rat model of osteoporosis: a practical guide. EXCLI J. 2020 Jan. 10; 19:89-107. doi: 10.17179/excli2019-1990). […] To determine the depth of the epithelium, high quality 100x images were taken of the two regions and thickness of the epithelium measured at 25 distinct sites at each level for each animal, then averaged. […] P values were determined by student's T-test. […]

[4] = Level in systemic circulation after suppository regimen; type: in vivo; conditions: female, rat, other: intravaginal suppository, one day after a two-week, daily suppository administration regimen, read-out: level in the systemic circulation (undetectable, LOD)
Procedure: (§2) Compound 4 of Table 1 was tested in the ovariectomized rat, a model of GSM, (Yousefzadeh N, et al., Ovariectomized rat model of osteoporosis: a practical guide. EXCLI J. 2020 Jan. 10; 19:89-107. doi: 10.17179/excli2019-1990). Six rats were tested in each of five treatment groups: rats treated with low or high concentrations of control (vehicle only); rats treated with low (0.2 mg/suppository or high (1.0 mg/suppository levels of compound 4 (abbreviated as “3F” in these figures); and rats treated with estradiol 0.1 microgram/suppository. Suppositories were administered intravaginally daily for 14 days. There were two sets of vehicle controls, corresponding to the level of excipients used in the in the low and high compound 4 treatment conditions. The estradiol treatment condition had excipients equivalent to the high control and high compound 4 treatment conditions. The individuals performing the drug treatment of the animals, their gross evaluations, sacrifice and dissection were blinded to the treatment that each group received. […] J Steroid Biochem Mol Biol. 2008 March; 109(1-2):67-80 doi: 10.1016/j.jsbmb.2007.09.023). […] To determine the depth of the epithelium, high quality 100x images were taken of the two regions and thickness of the epithelium measured at 25 distinct sites at each level for each animal, then averaged. […] P values were determined by student's T-test. […]

ovariectomized rat [5] = assay: Behavior, appearance, weight and necropsy findings of treated rats; type: in vivo; conditions: intravaginal suppository daily for 14 days
Procedure: as §2

ovariectomized rat [6] = assay: Vaginal mucin 5B immunohistochemistry, semi-quantitative score, ovariectomized rat; type: in vivo; conditions: intravaginal suppository daily for 14 days
Procedure: as §1
To investigate compound 4-mediated production of mucins in more detail, we investigated the production and presence of mucin 5B in the rat vagina. […] A semi-quantitative scoring system for the mucin 5B immunohistochemistry was designed with values between 0 to 2 in increments of 0.5 for the quantity of mucin 5B and the depth of the epithelium positive for mucin 5B, and then assessed at the levels 1, 2&3, 4&5, and 6&7. The presence of mucin 5B in the vaginal lumen was also assessed, then all values were summed for each animal. […] P values were determined by student's T-tests.

ovariectomized rat [7] = assay: Thickness of uterine endometrium, myometrium and bladder urothelium, ovariectomized rat; type: in vivo; conditions: estradiol 0.1 microgram/suppository daily for 14 days
Procedure: as §1
To ascertain whether compound 4 has an effect on the epithelium of anatomically neighboring tissues, the thickness of the epithelium was assessed in the uterus (a known target tissue of physiological levels of estradiol) and bladder (not an estrogen target tissue). The rats from the five treatment groups in the ovariectomized rat model of GSM described in Example 2 were evaluated for the effects of compound 4 on growth of uterus and bladder. […] The endometrium, myometrium, and urothelium thickness of each animal (n=6) were measured in 20 locations and averaged. […] P values were determined by student T-test.

ovariectomized rat [8] = assay: Ki67 immunohistochemistry of uterine sections, ovariectomized rat; type: in vivo; conditions: estradiol 0.1 microgram/suppository daily for 14 days
Procedure: as §1
Ki67 IHC was performed on a uterine section from animals in the control, the high level of compound 4 (abbreviated as “3F” in these figures), and estradiol groups. […] Approximately 800 cells were assessed for each animal within a group, then averaged to obtain the group mean. […] P values were determined by student T-test.

Question: For `O=c1cc(-c2ccc(O)cc2)oc2ccc(O)cc12` [compound 1, 6-hydroxy-2-(4-hydroxyphenyl)-4H-chromen-4-one], which “estrogen agonist effect on estrogen receptor-mediated gene expression” value (estrogen receptor) is on record?
Answer: estrogen agonist

Question: For `O=c1c(O)c(-c2ccc(O)cc2)oc2ccc(O)cc12` [compound 2, 3,6-dihydroxy-2-(4-hydroxyphenyl)-4H-chromen-4-one], which “estrogen agonist effect on estrogen receptor-mediated gene expression” value (estrogen receptor) is on record?
Answer: superior potency as an estrogen receptor agonist compared to compound 1

Question: And the EC50 [1]?
Answer: 44 nM

Question: For `Cc1c(-c2ccc(O)cc2)oc2ccc(O)cc2c1=O` [compound 3, 6-hydroxy-2-(4-hydroxyphenyl)-3-methyl-4H-chromen-4-one], which “potency compared to compound 2 (fold less potent)” value ([1]; T47D ERE-luciferase, 20 hours) is on record?
Answer: about 10 fold

Question: And the “estrogenic activity (luciferase) in words” value ([1]; T47D ERE-luciferase, 20 hours)?
Answer: at very high doses appears to have superagonist activity

Question: Which “percent Ki67 positive cells in vaginal basal and parabasal layers vs control” value (ovariectomized rat [2]) does the source give for `O=c1c(F)c(-c2ccc(O)cc2)oc2ccc(O)cc12` [compound 4, 3-fluoro-6-hydroxy-2-(4-hydroxyphenyl)-4H-chromen-4-one] here?
Answer: no statistical difference between the groups

Question: What about the “effect on vaginal epithelium structure, in words” value (ovariectomized rat [3]; 0.2 and 1.0 mg/suppository intravaginally daily for 14 days) of the same compound?
Answer: dose dependent; also recorded: can restore the structure of the degenerate vaginal epithelium to the same level as estradiol

Question: And the “mean epithelial depth, p value vs corresponding control” value (ovariectomized rat [3]; low compound 4, 0.2 mg/suppository intravaginally daily for 14 days, both regions, borderline significant)?
Answer: ≈ 0.05

Question: What about the concentration at 1 day [4] of the same compound?
Answer: < 0.33 ng/mL

Question: What about the “effect on animal behavior, appearance, weight, necropsy findings” value (ovariectomized rat [5]) of the same compound?
Answer: does not affect animal behavior, appearance, weight, or necropsy findings

Question: And the EC50 [1]?
Answer: 24 nM

Question: And the “estrogenic activity (luciferase) in words” value ([1]; T47D ERE-luciferase, 20 hours)?
Answer: robust estrogenic activity and superior potency compared to compound 2

Question: What about the “vaginal production of mucins, in words” value (ovariectomized rat [6]) of the same compound?
Answer: stimulates the vaginal production of mucins; also recorded: lower dose of compound 4 treatment results in somewhat higher mucin production than higher dose

Question: Which “endometrium, myometrium, and urothelium thickness vs control” value (ovariectomized rat [7]) does the source give for `C[C@]12CC[C@@H]3c4ccc(O)cc4CC[C@H]3[C@@H]1CC[C@@H]2O` [estradiol] here?
Answer: None of the pairs exhibited a significant difference

Question: And the “mean percent Ki67 positive uterine cells vs control” value (ovariectomized rat [8])?
Answer: None of the pairs exhibited a significant difference
